Assay results taken from US20230183218A1, “CONDENSED SUBSTITUTED HYDROPYRROLES AS ANTAGONISTS OF THE MUSCARINIC ACETYLCHOLINE RECEPTOR M4” (Vanderbilt University, priority 2020, published 2023).

How the values were obtained:
Human M4 = target: T1, Human M4 (Homo sapiens, UniProt P08173); assay: mAChR M4 cell-based functional assay (calcium flux, antagonist mode vs EC80 acetylcholine), human M4/Gqi5/CHO-K1 cells; details: for remaining activity at 30 µM: CHO-K1, % ACh maximum at 30 μM, human M4, read-out: Human M4 Emin (%); for IC50: decrease of response elicited by EC80 acetylcholine, human M4/Gqi5 CHO-K1 cells
T1 construct: expressed in transfected cells; host or cells: CHO-K1 (ATCC), stably co-expressing chimeric G protein Gqi5
T1 sequence (P08173 1-479): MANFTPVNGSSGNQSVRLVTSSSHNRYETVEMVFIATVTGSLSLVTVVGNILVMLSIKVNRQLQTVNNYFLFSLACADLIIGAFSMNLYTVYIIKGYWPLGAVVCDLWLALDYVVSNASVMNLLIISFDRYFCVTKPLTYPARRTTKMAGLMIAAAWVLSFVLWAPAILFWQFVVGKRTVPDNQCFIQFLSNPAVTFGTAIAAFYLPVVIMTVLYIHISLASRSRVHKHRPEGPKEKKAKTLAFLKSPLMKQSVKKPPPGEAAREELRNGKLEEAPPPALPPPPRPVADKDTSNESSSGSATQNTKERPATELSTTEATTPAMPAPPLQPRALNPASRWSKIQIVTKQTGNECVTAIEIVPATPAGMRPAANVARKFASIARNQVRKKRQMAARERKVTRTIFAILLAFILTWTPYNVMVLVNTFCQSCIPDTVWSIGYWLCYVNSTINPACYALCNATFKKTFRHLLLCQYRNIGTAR
Experimental: (§1) Human or rat M4 cDNA, along with the chimeric G protein Gqi5, were transfected into Chinese hamster ovary (CHO-K1) cells purchased from the American Type Culture Collection using Lipofectamine2000. M4/Gqi5/CHO cells were grown in Ham's F-12 medium containing 10% heat-inactivated fetal bovine serum (FBS), 20 mM HEPES, 500 μg/mL G418 sulfate, and 200 μg/mL Hygromycin B.
(§2) For high throughput measurement of agonist-evoked increases in intracellular calcium, CHO-K1 cells stably expressing muscarinic receptors were plated in growth medium lacking G418 and hygromycin at 15,000 cells/20 μL/well in Greiner 384-well black-walled, tissue culture (TC)-treated, clear-bottom plates (VWR). Cells were incubated overnight at 37° C. and 5% CO2. The next day, cells were washed using an ELX 405 (BioTek) with assay buffer; the final volume was then aspirated to 20 μL. Next, 20 μL of a 2.3 μM stock of Fluo-4/acetoxymethyl ester (Invitrogen, Carlsbad, Calif.), prepared as a 2.3 mM stock in DMSO and mixed in a 1:1 ratio with 10% (w/v) Pluronic F-127 and diluted in assay buffer, was added to the wells and the cell plates were incubated for 50 min at 37° C. and 5% CO2. Dye was removed by washing with the ELX 405 and the final volume was aspirated to 20 μL. Compound master plates were formatted in a 10 point concentration-response curve (CRC) format (1:3 dilutions) in 100% DMSO with a starting concentration of 10 or 1 mM using a BRAVO liquid handler (Agilent). Test compound CRCs were then transferred to daughter plates (240 nL) using the Echo acoustic plate reformatter (Labcyte, Sunnyvale, Calif.) and then diluted into assay buffer (40 μL) to a 2× stock using a Thermo Fisher Combi (Thermo Fisher Scientific, Waltham, Mass.).
(§3) Calcium flux was measured using the Functional Drug Screening System (FDSS) 6000 or 7000 (Hamamatsu Corporation, Tokyo, Japan) as an increase in the fluorescent static ratio. Compounds were applied to cells (20 μL, 2×) using the automated system of the FDSS at 2 seconds into the protocol and the data were collected at 1 Hz. At 143 s, 10 μL of an EC20 concentration of the muscarinic receptor agonist acetylcholine was added (5×), followed by the addition of 12 μL of an EC80 concentration of acetylcholine at the 268 s time point (5×). Agonist activity was analyzed as a concentration-dependent increase in calcium mobilization upon compound addition. Positive allosteric modulator activity was analyzed as a concentration-dependent increase in the EC20 acetylcholine response. Antagonist activity was analyzed as a concentration-dependent decrease in the EC80 acetylcholine response; for the purposes of the tables herein, an IC50 (inhibitory concentration 50) was calculated as a concentration-dependent decrease of the response elicited by an EC80 concentration of acetylcholine. Concentration-response curves were generated using a four-parameter logistical equation in XLFit curve fitting software (IDBS, Bridgewater, N.J.) for Excel (Microsoft, Redmond, Wash.) or Prism (GraphPad Software, Inc., San Diego, Calif.) or the Dotmatics software platform (Dotmatics, Bishop's Stortford, UK).
(§4) Compounds were synthesized as described above. Activity (IC50 and Emin) was determined in the mAChR M4 cell-based functional assay as described above and the data are shown in Table 2.

Rat M4 = target: T2, Rat M4 (Rattus norvegicus, UniProt P08485); assay: mAChR M4 cell-based functional assay (calcium flux, antagonist mode vs EC80 acetylcholine), rat M4/Gqi5/CHO-K1 cells; details: for remaining activity at 30 µM: CHO-K1, % ACh maximum at 30 μM, rat M4, read-out: Rat M4 Emin (%); for IC50: decrease of response elicited by EC80 acetylcholine, rat M4/Gqi5 CHO-K1 cells
T2 construct: expressed in transfected cells; host or cells: CHO-K1 (ATCC), stably co-expressing chimeric G protein Gqi5
T2 sequence (P08485 1-478): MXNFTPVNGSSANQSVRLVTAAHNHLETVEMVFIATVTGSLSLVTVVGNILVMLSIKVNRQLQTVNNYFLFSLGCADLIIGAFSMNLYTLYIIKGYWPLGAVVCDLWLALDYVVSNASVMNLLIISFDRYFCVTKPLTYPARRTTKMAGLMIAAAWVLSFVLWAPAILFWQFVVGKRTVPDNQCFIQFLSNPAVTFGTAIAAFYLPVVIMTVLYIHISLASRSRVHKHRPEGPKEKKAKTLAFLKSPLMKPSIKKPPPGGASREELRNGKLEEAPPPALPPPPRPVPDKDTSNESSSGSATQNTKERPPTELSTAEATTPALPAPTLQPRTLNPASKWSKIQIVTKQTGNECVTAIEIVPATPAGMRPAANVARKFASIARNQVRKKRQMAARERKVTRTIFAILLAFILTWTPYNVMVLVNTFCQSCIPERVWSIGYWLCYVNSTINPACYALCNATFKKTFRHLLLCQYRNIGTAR
Experimental: as §1, §2, §3, §4

remaining activity at 30 µM (Human M4) | IC50 (Human M4) | remaining activity at 30 µM (Rat M4) | IC50 (Rat M4) | SMILES
4% | 42.2 nM | 5% | 740 nM | COCCCN1C[C@H]2C[C@H](Nc3ccc(-c4cc(F)ccc4Cl)nn3)C[C@H]2C1 [compound 1, (3aR,5s,6aS)-N-(6-(2-chloro-5-fluorophenyl)pyridazin-3-yl)-2-(3-methoxypropyl)octahydrocyclopenta[c]pyrrol-5-amine]
5% | 64.7 nM | 6% | 1270 nM | Fc1ccc(Cl)c(-c2ccc(N[C@H]3C[C@@H]4CN(C5CCOCC5)C[C@@H]4C3)nn2)c1 [compound 2, (3aR,5s,6aS)-N-(6-(2-chloro-5-fluorophenyl)pyridazin-3-yl)-2-(tetrahydro-2H-pyran-4-yl)octahydrocyclopenta[c]pyrrol-5-amine]
9% | 417 nM |  |  | O=C(NC1CC1)c1ccc(N[C@H]2C[C@@H]3CN(CC4CCOCC4)C[C@@H]3C2)nn1 [compound 3, N-cyclopropyl-6-(((3aR,5s,6aS)-2-((tetrahydro-2H-pyran-4-yl)methyl)octahydrocyclopenta[c]pyrrol-5-yl)amino)pyridazine-3-carboxamide]
6% | 535 nM |  |  | O=C(NC1CCCCC1)c1ccc(N[C@H]2C[C@@H]3CN(CC4CCOCC4)C[C@@H]3C2)nn1 [compound 4, N-cyclohexyl-6-(((3aR,5s,6aS)-2-((tetrahydro-2H-pyran-4-yl)methyl)octahydrocyclopenta[c]pyrrol-5-yl)amino)pyridazine-3-carboxamide]
14% | 5.45 nM | 14% | > 10000 nM | O=C(c1ccc(N[C@H]2C[C@@H]3CN(CC4CCOCC4)C[C@@H]3C2)nn1)N1CCCCC1 [compound 5, piperidin-1-yl(6-(((3aR,5s,6aS)-2-((tetrahydro-2H-pyran-4-yl)methyl)octahydrocyclopenta[c]pyrrol-5-yl)amino)pyridazin-3-yl)methanone]
21% | 11.7 nM | 13% | 7430 nM | O=C(c1ccc(N[C@H]2C[C@@H]3CN(CC4CCOCC4)C[C@@H]3C2)nn1)N1CCOCC1 [compound 6, morpholino(6-(((3aR,5s,6aS)-2-((tetrahydro-2H-pyran-4-yl)methyl)octahydrocyclopenta[c]pyrrol-5-yl)amino)pyridazin-3-yl)methanone]
4% | 572 nM | 22% | > 10000 nM | O=C(Nc1ccccc1)c1ccc(N[C@H]2C[C@@H]3CN(CC4CCOCC4)C[C@@H]3C2)nn1 [compound 7, N-phenyl-6-(((3aR,5s,6aS)-2-((tetrahydro-2H-pyran-4-yl)methyl)octahydrocyclopenta[c]pyrrol-5-yl)amino)pyridazine-3-carboxamide]
4% | 355 nM | 25% | > 10000 nM | O=C(Nc1ccccc1F)c1ccc(N[C@H]2C[C@@H]3CN(CC4CCOCC4)C[C@@H]3C2)nn1 [compound 8, N-(2-fluorophenyl)-6-(((3aR,5s,6aS)-2-((tetrahydro-2H-pyran-4-yl)methyl)octahydrocyclopenta[c]pyrrol-5-yl)amino)pyridazine-3-carboxamide]
3% | 713 nM |  |  | O=C(Nc1cccc(F)c1)c1ccc(N[C@H]2C[C@@H]3CN(CC4CCOCC4)C[C@@H]3C2)nn1 [compound 9, N-(3-fluorophenyl)-6-(((3aR,5s,6aS)-2-((tetrahydro-2H-pyran-4-yl)methyl)octahydrocyclopenta[c]pyrrol-5-yl)amino)pyridazine-3-carboxamide]
4% | 543 nM | 9% | 4190 nM | O=C(Nc1ccc(F)cc1)c1ccc(N[C@H]2C[C@@H]3CN(CC4CCOCC4)C[C@@H]3C2)nn1 [compound 10, N-(4-fluorophenyl)-6-(((3aR,5s,6aS)-2-((tetrahydro-2H-pyran-4-yl)methyl)octahydrocyclopenta[c]pyrrol-5-yl)amino)pyridazine-3-carboxamide]
4% | 2060 nM | 29% | > 10000 nM | O=C(Nc1cc(F)ccc1Cl)c1ccc(N[C@H]2C[C@@H]3CN(CC4CCOCC4)C[C@@H]3C2)nn1 [compound 11, N-(2-chloro-5-fluorophenyl)-6-(((3aR,5s,6aS)-2-((tetrahydro-2H-pyran-4-yl)methyl)octahydrocyclopenta[c]pyrrol-5-yl)amino)pyridazine-3-carboxamide]
4% | 2.85 nM | 5% | 445 nM | Fc1ccc(Cl)c(-c2ccc(N[C@H]3C[C@@H]4CN(C5CCCCC5)C[C@@H]4C3)nn2)c1 [compound 12, (3aR,5s,6aS)-N-(6-(2-chloro-5-fluorophenyl)pyridazin-3-yl)-2-cyclohexyloctahydrocyclopenta[c]pyrrol-5-amine]
57% | ≥ 10000 nM |  |  | N#Cc1ccccc1N1C[C@H]2C[C@H](Nc3ccc(-c4cc(F)ccc4Cl)nn3)C[C@H]2C1 [compound 17, 2-((3aR,5s,6aS)-5-((6-(2-chloro-5-fluorophenyl)pyridazin-3-yl)amino)hexahydrocyclopenta[c]pyrrol-2(1H)-yl)benzonitrile]
 |  | 70% | > 10000 nM | CC1(C)CC(N2C[C@H]3C[C@H](Nc4ncc(-c5ccccc5)s4)C[C@H]3C2)CCO1 (stereo partly drawn) [compound 19, N-((3aR,5s,6aS)-2-(2,2-dimethyltetrahydro-2H-pyran-4-yl)octahydrocyclopenta[c]pyrrol-5-yl)-5-phenylthiazol-2-amine]
52% | > 10000 nM |  |  | CC1(C)CC(N2C[C@H]3C[C@H](Nc4ccc5nncn5n4)C[C@H]3C2)CCO1 (stereo partly drawn) [compound 61, N-((3aR,5s,6aS)-2-(2,2-dimethyltetrahydro-2H-pyran-4-yl)octahydrocyclopenta[c]pyrrol-5-yl)-[1,2,4]triazolo[4,3-b]pyridazin-6-amine]
